Experimental data reported in US20050106236A1, “5-Ht4partial agonist pharmaceutical compositions” (priority 2001, published 2005).

Assay: Solubility of tegaserod in water
Type: physicochemical
Conditions: at 25° C. in water
Experimental: A preferred agent is tegaserod, a 5-HT4 partial agonist of formula [drawing 1] or pharmaceutically acceptable salt form thereof, e.g. the hydrogen maleate (hereinafter “hml”) salt. Tegaserod has a solubility of about 0.02% at 25° C. in water and is acid sensitive.

- solubility: about 0.02%
SMILES: CCCCCNC(=N)NN=Cc1c[nH]c2ccc(OC)cc12 [Tegaserod, 3-(5-methoxy-1H-Indol-3-yl-methylene)-N-pentylcarbazimidamide]
